One data set concerns cell culture GMK-AH (1D). Nature of the data set: Evaluation of cytotoxicity in cell culture GMK-AH (1D). It is filed as cell-based. The procedure: Evaluation of the cytotoxicity of the test compound using a constant cell culture GMK-AH (1D).
To form a continuous monolayer, 1 ml of cell suspension with a density of 200 thousand/ml was added into each tubes and incubate at a temperature (37.0±0.5)° C., 5% CO2.
Then the growth medium was removed and fresh medium containing various concentrations of test drugs (from 1000 to 6.25 µg/ml) was added. The tubes were then incubated for 5 days at a temperature (37.0+0.5)° C., 5% CO2.
Using a light microscope, the state of the monolayer cells was observed: partial or complete destruction of the monolayer cells, damage to individual cells, cell syncytium formation. Control samples were tubes with a monolayer, which included maintenance medium without a drug.

In a further data set the test system is West Nile virus. Nature of the data set: Effectiveness in cell culture GMK-AH (1D) against West Nile virus. It is filed as cell-based. The procedure: Monolayer of the cell culture GMK-AH (1D) was infected with West Nile virus in a dose of 0.05 PFU/cell. Virus was adsorbed at 37° C., 5% CO2, for 60 minutes. At the end of the incubation, the monolayer was washed three times with maintenance medium containing 100 u/ml penicillin and streptomycin to remove non-adsorbed virus, and test compounds were added at a concentration of ½ MIC. The substance was dissolved in maintenance medium to the desired concentration. For each compound, not less than 10 tubes with a monolayer of cells were used. Incubation was performed at 37° C., 5% CO2 for 48 hours. Next, the cryodestruction of cells was performed and the samples were combined. The infectious titer in the combined samples was determined by titration by forming negative colonies under the agar coating in the cell culture GMK-AH (1D).

The mark [1] stands for this setting: cytotoxicity, GMK-AH (1D), 5 days.
Setting [2] is: 250.0 μg/ml (½ MIC), GMK-AH (1D), 0.05 PFU/cell, 48 hours.

On to `CSc1nc2[nH]nc([N+](=O)[O-])c(=O)n2n1` [Claimed compound, 2-methylsulfanyl-6-nitro-7-oxo-1,2,4-triazolo[5,1-c] [1,2,4]triazinid L-arginine dihydrate], for which the “The frequency of the cytopathic effect of the claimed compound” value was 0/4 in the data set with cell culture GMK-AH (1D) (concentration 7.8 mg/mL, GMK-AH (1D), 5 days); 0/4 in the data set on cell culture GMK-AH (1D) (concentration 15.5 mg/mL, GMK-AH (1D), 5 days); 0/4 in the data set on cell culture GMK-AH (1D) (concentration 31.3 mg/mL, GMK-AH (1D), 5 days); 0/4 in the data set on cell culture GMK-AH (1D) (concentration 62.5 mg/mL, GMK-AH (1D), 5 days); 0/4 in the data set on cell culture GMK-AH (1D) (concentration 250.0 mg/mL, GMK-AH (1D), 5 days); 0/4 with cell culture GMK-AH (1D) (concentration 500.0 mg/mL, GMK-AH (1D), 5 days). Besides, the “The frequency of the cytopathic effect of the claimed compound” value in the data set on cell culture GMK-AH (1D) (concentration 1000.0 mg/mL, GMK-AH (1D), 5 days) is given as 2/4; in the data set on cell culture GMK-AH (1D) (concentration 125,0 mg/mL, GMK-AH (1D), 5 days), 0/4. In the data set on cell culture GMK-AH (1D) (concentration of 500 μg/ml, GMK-AH (1D)), the “visible changes in the cell culture” value is “did not cause any visible changes”. Besides, the “toxicity in the concentrations used” value in the data set with cell culture GMK-AH (1D) (concluding statement) is reported as “nontoxic”. For the same compound, in the data set on cell culture GMK-AH (1D) (cytotoxicity, GMK-AH (1D)), the “½ MIC” value was 250.0 µg/mL. Also, the MIC in the data set on cell culture GMK-AH (1D) (setting [1]) turned out to be 500.0 µg/mL. Further, the cytotoxic concentration in the data set on cell culture GMK-AH (1D) (setting [1]) turned out to be 1000.0 µg/mL. Besides, in the data set with West Nile virus (setting [2]), the “Level of the virus accumulation” value is 4.2 lg PFU/ml. Also, the “Reduction of the virus accumulation” value in the data set with West Nile virus (setting [2]) is 2.3 lg PFU/ml. The same compound displayed an inhibiting factor in the data set on West Nile virus (Table 2, GMK-AH (1D)) of 99.5%. The “inhibits the reproduction of West Nile virus” value with West Nile virus (Table 2, GMK-AH (1D)) is on record as 2.31 g. In the data set on West Nile virus (concluding statement), the “antiviral activity in vitro against West Nile virus” value is on record as “significant antiviral activity”.

The record behind these values is patent US9790227B2, “2-methylsulphanyl-6-nitro-7-oxo-1, 2, 4-triazolo [5, 1-C] [1, 2, 4] triazinide L-arginine dihydrate active toward west nile virus” (LIMITED LIABILITY COMPANY “URAL CENTER OF BIOPHARMACEUTICAL …, priority 2013, dated 2017).
